Entries after “also recorded” stand apart in the source; their conditions may differ. Where two headings read alike, the source gives them in different places. No end group written: not given here.
Columns and labels:
[1] = patients treated with Januvia; cited from earlier work
[2] = test system: extensor digitorum longus (EDL) of non-fasted db/db mice; assay: Ex vivo contractility assay, force recovery after fatigue; design: species or system mouse
Protocol: Application of GLP1 can improve contractility in skeletal muscle from diabetic mice. […] This leads us to test whether the increased Ca sparks activity can be translated as increased muscle force as measured by ex vivo contractility assays. The extensor digitorum longus (EDL) of non-fasted db/db mice is mounted to a force transducer and electrically stimulated following the protocol shown in FIG. 11. A 10 fold higher dose of GLP1 (100 nM) used in the Ca^2+ spark experiments is applied to the contractility study, to take into account the increased mass of the anatomical muscle over the isolated muscle fiber. Muscles were tested for their maximum force (Tmax) produced at various frequencies and then fatigued using rapid pulses of an electric field, which was then followed by another measurement of Tmax. Following 1 hour of GLP1 application, this stimulation protocol was repeated on the same muscles (FIG. 11a). Calculating the ratio of Tmax before and after GLP1 application will show how the application of GLP1 can influence the recovery of muscle function following fatigue.
Intact EDL and soleus muscle isolation. Intact EDL and soleus muscles were dissected from mice and maintained in Isotonic Tyrode solution supplemented with 12 mM glucose, continuously bubbled with 100% O2. […] Muscles were mounted vertically on a glass-stimulating apparatus (Radnoti) with platinum electrodes and attached to a movable isometric force transducer and to a stationary anchor, which allowed muscles to be stretched until both maximal forces for a given frequency and the frequency producing Tmax were obtained.
Force measurements during fatigue. A Powerlab computer-interface program (ADInstruments) was used to control the electrical stimulation protocols and to record, digitize and store force output data. […] Forces were normalized into gram after calibration and all data were analyzed by Origin software (OriginLab). […]
(§1) Solutions. […] 5 CaCl2, 2 MgCl2 and 10 HEPES (ph 7.2), with measured osmolality of 290 mOsm. […]

[3] = test system: rat's soleus muscle; conditions: rat soleus incubated with GLP1; cited from earlier work
[4] = test system: WT muscle fibers; assay: Osmotic shock-induced Ca2+ sparks in isolated FDB muscle fibers (confocal imaging); format: cell-based, mouse; conditions: GLP1 treatment
Protocol: (§2) The Ca spark response in skeletal muscle is compromised in mg29−/− and diabetic muscle. […] Considering that we see a similar functional phenotype with glucose handling between the mg29−/− animal and diabetic patients, we tested if the we would see similar defects in Ca signaling as well. Ca spark measurement is performed in 13-16 weeks old control wild type, type I diabetic mice (akita) or type II diabetic mice (db/db). Non-fasted serum glucose levels are recorded from blood samples taken from the tail vein immediately before sacrificing the mice. Following an established protocol in our laboratory, we measured Ca sparks in muscle fibers isolated from the flexor digitorum brevis (FDB). We observed no increase in the frequency of spontaneous resting Ca sparks in db/db muscle fibers (data not shown). […] The degree that the spark frequency decreased could be directly correlated with the blood glucose level of the animal, with more diabetic animals displaying less sparks than those animals with lower blood glucose levels (FIG. 9b).
(§3) FDB skeletal muscle fiber isolation. Mice were sacrificed by cervical dislocation and hind limbs were surgically removed and placed into Isotonic Tyrode with measured osmolarity of 290 mOsm. Flexor Digitorum Brevis (FDB) muscles were excised and transferred into Tyrode supplemented with 0.2% type I collagenase (Sigma C-0310), for 90 minutes at 37° C. Muscle fibers were gently dissociated by several passages through a small diameter pipette. Isolated FDB muscle fibers were plated onto a ΔTC glass-bottomed dishes (Bioptech Inc.) in 1 ml of Tyrode buffer.
(§4) Confocal Ca^2+ imaging and spark analysis. Following individual muscle fiber isolation, the fibers were plated onto a dish containing isotonic tyrode solution (290 mOsm). 10 μM Fluo4-AM, a membrane permeable cytosolic Ca^2+ indicator dye is loaded onto the dish and left incubated for 60 minutes in room temperature along with different drug treatment. Replacing 50% of the dish volume with isotonic Tyrode for three times washed excess dye from the dish. Using brightfield confocal microscopy, fibers were then be screened by light microscopy for intact sarcolemmal membranes and regular striation patterns. Muscle fibers that fulfill these criteria were bathed in the isotonic solution, a physiological resting condition. Measurement of SR Ca^2+ release was performed on a BioRad Radiance-2100 confocal microscope equipped with Argon laser ([…]), Helium-Neon laser (632 nm), and a 40×, 1.3 NA oil immersion objective. An acquisition rate of 2 ms perline was used for line scan imaging, while serial x-y images were acquired at 3.08 s per frame (512×512 pixels). Osmotic shock to disrupt the juxtaposition of membrane coupling was applied to analyze whether knockdown of Bin1 alters the Ca^2+ sparks activity. Initially, fiber was perfused with isotonic solution for 30 seconds prior to applying hypotonic Tyrode solution (170 mOsm) for 1 minute that induces membrane swelling. […] For each animal, 3-4 fibers were treated by osmotic shock, and from each fiber 2 images (comprised of 30000 2 ms linescans of 512 pixels) were recorded. Image analysis and normalization of linescan intensities to the calculated resting fluorescence (F0) and determination of the amplitude and duration of individual events was performed using custom routines for IDL software. […]
as §1

[5] = test system: db/db muscle fibers; assay: as above; format: cell-based, mouse
Protocol: as §2, §3, §4, §1

[6] = Insulin challenge, blood glucose after bolus IP injection; format: in vivo, mouse; conditions: IP injection of insulin
Protocol: FIG. 6. Mice null for MG29 (mg29−/−) display compromised response to insulin challenge. Fasting blood glucose levels were measured in mice following a bolus IP injection of insulin at time 0 on chart. […] Mean±SEM is shown. ANOVA is used for analysis with **: P<0.01;***P<0.001.

With `N[C@@H](CC(=O)N1CCn2c(nnc2C(F)(F)F)C1)Cc1cc(F)c(F)cc1F` [Januvia, Sitagliptin] as the molecule, how does the blood glucose [1] read?
The blood glucose was “normalization”.

Which results are given for “GLP1 7-36 Amide (HAEGTFTSDVSSYLEGQAAKEFIAWLVKGR-NH2; UniProt P01275 98-127, looked up) [Glucagon like peptide 1 (GLP1) of pro-glucagon origin is a type of incretin hormone; obtained from Sigma]”?
twitch ratio ([2]; after GLP1 treatment, 100 nM): no significant change; Tmax recovery ratio (maximal force after fatigue to before fatigue) ([2]; db/db EDL, 100 nM GLP1 for 1 h): back to the levels seen in the WT muscles; also recorded: improves muscle force; force frequency relationship ([2]; db/db muscle, 100 nM GLP1): did not significantly alter; PKB activity [3]: increased; glycogen synthase activity [3]: increased; peripheral subsarcolemmal distribution of Ca2+ sparks ([4]; WT fibers): does not alter; Ca2+ spark frequency ([4]; WT muscle): minimal increases; Ca2+ spark events / frequency ([5]; db/db FDB fibers after osmotic shock, GLP1 10 nM for 1 hour): significantly improves; also recorded: can be reversed; also recorded: significant increased; peripheral subsarcolemmal distribution of Ca2+ sparks ([5]; db/db fibers, GLP1 treatment): does not alter; GLP1 effect on Ca2+ sparks by blood glucose group ([5]; db/db mice, high blood glucose >330 mg/dL vs lower blood glucose <260 mg/dL): maximum activity on db/db mice that exhibit high hyperglycemia condition

With insulin as the molecule, how does the blood glucose level ([6]; mg29-/- mice) read?
The blood glucose level was “much less effect”.

What about the blood glucose ([6]; wild type control animals) of the same molecule?
The blood glucose was “significant decrease”.

— patent US8603993B2, “Compositions and methods modulating MG29 for the treatment of diabetes” (University of Medicine and Dentistry of New Jersey, priority 2009, dated 2013)
